According to patent US8673910B2, “Proteasome inhibitors for selectively inducing apoptosis in cancer cells” (H. Lee Moffitt Cancer Center and Research Institute, priority 2008, dated 2014):
Several values for one entry are separate records, joined by “and”; a condition that tells them apart may be missing. Identical values can stand only once. Like-named read-outs stand apart in the source and are kept apart here.

Experiments:
[1] = test system: p27^Kip1 levels in A549 lung cancer cells; test: Western blot of p27Kip1 in cultured A549 cells; type: cell-based, human; settings: 48 h treatment
Protocol: (§1) Cell lysates (50 μg) were separated by SDS-PAGE and transferred to a nitrocellulose membrane, probed with p27^Kip1 and β-actin antibodies, and signals were visualized by enhanced chemoluminescence (ECL, Amersham, Piscataway, N.J.) according to the manufacturer's protocol.

[2] = test system: primary multiple myeloma cells isolated from patients' bone marrow; test: Viability of primary multiple myeloma cells (MTT assay); type: cell-based, human
Protocol: (§2) MM patients' bone marrow samples were collected from Liquid Tissue Bank facility. Freshly isolated bone marrow samples were fractionated by Ficoll-Paque (Pharmacia Biotech, Piscataway, N.J.) sedimentation. The mononuclear cellular layer was then resuspended in RPMI-1640 containing 10% heat-inactivated fetal bovine serum, 10 mM HEPES (pH 7.4), sodium pyruvate, L-glutamine, and 1% penicillin-streptomycin.
Cells were plated in 96-well plates in 100 μl medium and allowed to attach overnight. […] […] Media was then aspirated and DMSO was added. Cells were incubated for 10 min at room temperature while shaking, and the absorbance was determined at 540 nm using a μQuant spectrophotometric plate reader (Bio-TEK, Winooski, Vt.).

[3] = test system: T80-Hras ovarian cancer cells; test: MTT metabolism assay; type: cell-based; settings: Homo sapiens, mean ± SD of 3 to 5 experiments, read-out: IC50 for cell viability measured by MTT assay
[4] = test system: MCF-7/MCF-10A, T-80-Hras/T-80, C7-Kras/C7 cells; test: TUNEL assay, apoptosis in cancer and non-transformed cell pairs; type: cell-based, human; settings: 3 pairs of cell lines, 24 h
Protocol: Terminal deoxynucleotidyl transferase-mediated nick-end labeling (TUNEL) was used to determine the extent of DNA strand breaks (Kazi et al., 2004). The assay was performed with the APO-Direct Kit following the manufacturer's instructions. In brief, the harvested cells were fixed in 1% paraformaldehyde for 45 minutes on ice, washed twice with PBS, and then fixed again in 70% ethanol at −20° C. overnight. The cells were then incubated in DNA labeling solution (containing terminal deoxynucleotidyl transferase (TdT) enzyme, fluorescence-conjugated dUTP and reaction buffer) for 60 minutes at 37° C. After rinsing the cells to remove the DNA labeling solution, the cells were incubated with the propidium iodide/RNase A solution, incubated for 30 minutes at room temperature in the dark, and analyzed by flow cytometry within 3 hours of staining.

[5] = test system: CT-L activity of rabbit 20S proteasome; test: Dialysis using purified rabbit 20S proteasome; type: biochemical; settings: compound 10 μM, 30 min pre-incubation at 37° C.
Protocol: To measure the effect of dialysis on CT-L activity, compounds (10 μM) or vehicle (0.1% DMSO) were added to rabbit 20S proteasome (225 ng) (Boston Biochem) in proteasome assay buffer (50 mM Tris-HCl, pH 7.6) and incubated at 37° C. for 30 min. After 30 min of incubation, proteasome-compound mixtures were added to 10,000 MWCO Thermo Scientific Slide-A-Lyzer Dialysis Cassette (Rockford, Ill.) and dialyzed against proteasome assay buffer. Immediately (t=0) and 0.5 h, 1 h, 2 h, 4 h, and 18 h of dialysis at 4° C., samples were removed from the dialysis cassette and the CT-L 20S proteasome activity was determined. Proteasome activity was normalized against proteasome activity of DMSO control.

[6] = biological target: T1, tumor CT-L activity (A549 tumors) (Homo sapiens, UniProt P20618+P28074); test: Proteasome activity in A549 tumor lysates after in vivo treatment; parameters: species or system nude mice; settings: mouse, ip; A549 tumors extracted 2 hours after last i.p. injection (1 mpk), vs DMSO-treated controls
T1 construct: from tissue; host or cells: A549 human lung tumour xenografts grown in nude mice

[7] = test system: primary multiple myeloma cells isolated from patients' bone marrow; test: Proliferation of primary multiple myeloma cells (Trypan blue); type: cell-based, human; settings: primary MM cells, 24 h treatment, Table 5: one value per patient, mean over patients
Protocol: as §2
(§3) Adherent cells were harvested using trypsinization and pooled with suspension cells from media supernatant by pelleting at 300 g for 5 min at 4° C. The cells were then resuspended in an appropriate volume of media by pipetting gently up and down. Two 20 μl aliquots were removed and combined with an equal volume of 0.4% Trypan blue and allowed to mix for 1 minute. A 10 μl volume was loaded onto a hemacytometer and cells were scored as live or dead based on Trypan blue dye exclusion and the percentage of dead cell number to total cell number was calculated. To calculate the percentage of proliferation, the number of live cells in the treated samples was divided by the number of live cells in the untreated vehicle control.

[8] = test system: p27^Kip1 protein in A549 tumors; test: Western blot of p27Kip1 in A549 tumor lysates; type: in vivo; settings: A549-bearing nude mice
Protocol: as §1

[9] = test system: primary multiple myeloma cells isolated from patients' bone marrow; test: Cell death of primary multiple myeloma cells (Trypan blue); type: cell-based, human; settings: read-out: Cell death 24 h (IC50 values); primary MM cells, 24 h treatment; Table 5: one value per patient; mean over patients
Protocol: as §2, §3

[10] = biological target: T2, CT-L activity of the proteasome in MCF-7 human breast cancer cells (Homo sapiens, UniProt P20618+P28074); test: Proteolytic activity in cell lysates of treated intact MCF-7 cells; type: cell-based; settings: intact cells treated 16 h, CT-L measured in cell lysates; two determinations where two values
T2 construct: endogenous in cells; host or cells: MCF-7
Protocol: Human MCF-7 breast cancer cells were cultured in DMEM medium containing 10% fetal calf serum (FCS) and 100 units/ml of penicillin and 100 μg/ml of streptomycin. Cells were maintained at 37° C. in a humidified incubator in an atmosphere of 5% CO2. Cells were treated with different concentrations of PI-083, YG1-080, YG1-075, HL2-090-2, HL2-090-4, HL2-090-6, and HL2-090-9 or vehicle control (DMSO) for 16 h.
Intact cells were treated with compounds and lysates prepared as described above. Cell lysates (5 μg) was incubated with 20 μM Suc-Leu-Leu-Val-Tyr-AMC for the CT-L activity for 1 h at 37° C. in 100 μl of assay buffer (50 mM Tris-HCl, pH 7.6). After incubation, production of hydrolyzed 7-amido-4-methyl-coumarin (AMC) groups was measured using a WALLAC Victor^2 1420 Multilabel Counter with an excitation filter of 355 nm and an emission filter of 460 nm (Perkin Elmer Life Sciences, Turku, Finland).

[11] = read-out: Viability 24 h (IC50 values), primary MM cells, 24 h, Table 5: one value per patient, mean over patients
[12] = read-out: Proliferation 24 h (IC50 values)

| IC50 ([2]; primary MM cells, 48 h, Table 5: one value per patient, b176: mean over patients, read-out: Viability 48 h (IC50 values)) | IC50 ([2]; read-out: Viability 72 h (IC50 values), primary MM cells, 72 h, Table 5: one value per patient, b176: mean over patients) | IC50 [10] | IC50 ([3]; 72 h) [nM] | Compound | p27^Kip1 levels in cultured A549 lung cancer cells [1] | IC50 ([2]; primary MM cells, 48 h, Table 5: one value per patient, b176: mean over patients, listed as bortezomib, read-out: Viability 48 h (IC50 values)) [nM] | IC50 [2, 11] | IC50 ([2]; read-out: Viability 72 h (IC50 values), primary MM cells, 72 h, Table 5: one value per patient, b176: mean over patients, listed as bortezomib) [nM] | IC50 ([3]; 24 h) [nM] | apoptosis (TUNEL) [4] | inhibition of CT-L activity of the 20S proteasome in the absence of dialysis [5] [%] | inhibition at 1 mg/kg [6] [%] | IC50 ([7]; Homo sapiens, Multiple myeloma cell, read-out: Proliferation 24 h (IC50 values, μM)) [µM] | IC50 [7, 12] | treated tumors with dramatic upregulation of p27^Kip1 protein [8] | IC50 [9] |
| --- | --- | --- | --- | --- | --- | --- | --- | --- | --- | --- | --- | --- | --- | --- | --- | --- |
|  |  |  |  | CC(C)C[C@H](NC(=O)[C@H](Cc1ccccc1)NC(=O)c1cnccn1)B(O)O [Bortezomib, reference compound] | marked increase | 140 ± 80 | 190 nM and 280 nM | 46 ± 8 | > 30000 | induced little apoptosis in any of the cell lines | 99 | 70 | > 10 | > 10 µM | 4 out of 4 |  |
| 1790 nM and 2600 nM and 3600 nM and 900 nM and 1500 nM | 1600 nM and 2200 nM and 2600 nM and 1300 nM and 1800 nM and 350 nM | 6.2 µM and 5.6 µM | 2100 ± 400 | O=C1C(Cl)=C(Nc2ccc(S(=O)(=O)Nc3ccccn3)cc2)C(=O)c2ccccc21 [PI-083, 4-(3-chloro-1,4-dioxo-1,4-dihydronaphthalen-2-ylamino)-N-(pyridin-2-yl)benzenesulfonamide] |  |  | > 10000 nM and 2200 nM and 3400 nM and 1800 nM and 2000 nM |  | 1500 ± 570 |  |  | 43 |  | 6.6 µM and 1.3 µM and 2.2 µM and 2.6 µM and 1.7 µM and 2.8 µM and 10 µM and 5 µM and 2.9 µM |  | 6.2 µM and 2.7 µM and 1.1 µM and 2.4 µM and 1.7 µM and 4.1 µM and 9 µM and 7.3 µM and 3.2 µM |
